US7452688B2, “Transformed cell with enhanced sensitivity to antifungal compound and use thereof” (Sumitomo Chemical Company, Limited, priority 2002, dated 2008)

Columns and labels:
Type in all cases: cell-based, Saccharomyces cerevisiae
[1] = test system: transformed budding yeast AH22-BcOS1; assay: Antifungal compound sensitivity test, transformed budding yeast AH22-BcOS1 (Example 3); conditions: 30° C. 48 hours, absorbance at 600 nm relative to 0 ppm = 100
Experimental: The transformed budding yeast AH22-BcOS1 prepared in Example 2 was cultured while shaking at 30° C. for 18 hours in a Glu-Leu medium. As a control, the AH22 strain was similarly cultured while shaking at 30° C. for 18 hours in a Glu medium. The absorbance at 600 nm of each of the grown transformed budding yeasts in a cell suspension was measured, and a cell suspension diluted with sterilized distilled water to the absorbance of 0.1 was prepared. Further, a cell suspension in which the aforementioned cell suspension of the transformed budding yeast AH22-BcOS1 was diluted 200-fold with a Glu-Leu medium, and a cell suspension in which the aforementioned cell suspension of the AH22 strain was diluted 200-fold with a Glu medium were prepared. A solution in which each of Compounds (1) to (3) was dissolved in dimethylsulfoxide (DMSO) to the concentration of 60 ppm, a solution in which each of Compounds (4) and (5) was dissolved in dimethylsulfoxide (DMSO) to the concentration of 2000 ppm, and a solution in which each of Compounds (6) and (7) was dissolved in dimethylsulfoxide (DMSO) to the concentration of 20 ppm were prepared, and two microplates were prepared in which each 2.0 μL per well of the Compound solution and DMSO as a control were dispensed into two wells. In one microplate among them, each 200 μL of cell suspensions of the transformed budding yeast AH22-BcOS1 which had been prepared by dilution as described above was dispensed, and cultured by allowing to stand at 30° C. for 48 hours. In another microplate, each 200 μL of the cell suspensions of the control yeast AH22 strain which had been prepared by dilution as described above was dispensed, and cultured by allowing to stand at 30° C. for 48 hours. After culturing, the absorbance at 600 nm of each well was measured with a microplate reader.
Degree of growths of both of the transformed budding yeasts cultured under the presence of each of Compound (1) to (7) and budding yeast as a control therefor are shown in Table 1. Degree of growths of both of the transformed budding yeasts and budding yeasts as a control therefor are expressed by a relative value in percentage, letting the absorbance at 600 nm in a well having the concentration of the aforementioned Compound of 0 ppm to be 100. It was confirmed that an inhibiting degree of growth of TM182-BcOS1 by each test substance was grater than an inhibiting degree of growth of AH22-BcOS1 by each test substance, and the TM182-BcOS1 was a transformed cell with the enhanced sensitivity to an antifungal compound as compared with AH22-BcOS1.

AH22 = assay: Antifungal compound sensitivity test, control yeast AH22 (Example 6, Table 2); conditions: absorbance at 600 nm relative to 0 ppm = 100
Text: Degrees of growths of both of the transformed budding yeasts cultured under the presence of Compounds (1) to (7) and budding yeast as a control therefor are shown in Table 2. Degrees of growths of both of the transformed budding yeasts and budding yeast as a control are expressed by a relative value in percentage, letting the absorbance at 600 nm at the concentration of the Compound of 0 ppm to be 100. It was confirmed that an inhibiting degree of growth of the transformed budding yeast TM182-BcOS1-I 365S by each test substance was grater than an inhibiting degree of growth of the transformed budding yeast AH22-BcOS1-I 365S by each test substance, and the transformed budding yeast TM182-BcOS1-I365S was a transformed cell with the enhanced sensitivity to an antifungal compound as compared with the transformed budding yeast AH22-BcOS1-I365S.

[2] = test system: transformed budding yeast TM182-FoOS1; assay: Antifungal compound sensitivity test of transformed budding yeast TM182-FoOS1 (Example 13); conditions: for Degree of growth of budding yeast TM182-FoOS1 Gal-Ura-Leu medium: control medium, 30° C. 51 hours; for Degree of growth of budding yeast TM182-FoOS1 Gul-Ura-Leu medium: 30° C. 25 hours
Experimental: Similarly, the transformed budding yeast TM182-FoOS1 prepared in Example 12 was cultured at 30° C. for 18 hours in a Glu-Ura-Leu medium. The absorbance at 600 nm of the grown transformed budding yeast in a cell suspension was measured, and a cell suspension diluted with sterilized distilled water to the absorbance of 0.1 was prepared. Further, a cell suspension in which the transformed budding yeast TM182-FoOS1 was diluted 50-fold with a Glu-Ura-Leu medium and, as a control, a cell suspension in which the yeast was diluted 50-fold with a Gal-Ura-Leu medium were prepared.
A solution in which each of Compounds (1) to (3) was dissolved in dimethylsulfoxide (DMSO) to the concentration of 600 ppm, a solution in which each of Compounds […] and (5) was dissolved in dimethylsulfoxide (DMSO) to the concentration of 2000 ppm, and a solution in which each of Compounds (6) and (7) was dissolved in dimethylsulfoxide (DMSO) to the concentration of 20 ppm were prepared, and two microplates were prepared in which each 2.0 μL per well of the Compound-DMSO solution and DMSO as a control were dispensed into 2 wells. In one microplate among them, each 100 μL of cell suspensions of the transformed budding yeast TM182-FoOS1 which had been prepared by dilution with a Glu-Ura-Leu medium as described above was dispensed, and cultured by allowing to stand at 30° C. for 25 hours. In another microplate, as described above, as a control, each 100 μL of cell suspensions of the transformed budding yeast TM182-FoOS1 which had been prepared by dilution with a Gal-Ura-Leu medium was dispensed, and cultured at 30° C. for 51 hours. After culturing, the absorbance at 600 nm of each well was measured with a microplate reader.
A degree of growth of the transformed budding yeast is expressed as a relative value in percentage, letting the absorbance at 600 nm at the concentration of the Compound of 0 ppm to be 100. It was confirmed that an inhibiting degree of growth of the transformed budding yeast TM182-FoOS1 by each test substance was grater than an inhibiting degree of growth of the transformed budding yeast AH22-FoOS1 by each test substance, and the transformed budding yeast TM182-FoOS1 was a transformed cell with the enhanced sensitivity to an antifungal compound as compared with the transformed budding yeast AH22-FoOS1.

CC(C)NC(=O)N1CC(=O)N(c2cc(Cl)cc(Cl)c2)C1=O [Compound (2), Iprodione]
Degree of growth of budding yeast (%) AH22-BcOS1 Glu-Leu medium ([1]; final concentration 0.6 ppm): 92%
Degree of growth of budding yeast (%) AH22 Glu medium (AH22; final concentration 6 ppm): 91%
Degree of growth of budding yeast TM182-FoOS1 Gal-Ura-Leu medium ([2]; final concentration 6 ppm): 87%
Degree of growth of budding yeast TM182-FoOS1 Gul-Ura-Leu medium ([2]; final concentration 6 ppm): 55%

N#Cc1c[nH]cc1-c1cccc2c1OC(F)(F)O2 [Compound (6), Fludioxonil]
Degree of growth of budding yeast (%) AH22-BcOS1 Glu-Leu medium ([1]; final concentration 0.2 ppm): 81%
Degree of growth of budding yeast (%) AH22 Glu medium (AH22; final concentration 0.2 ppm): 92%
Degree of growth of budding yeast TM182-FoOS1 Gal-Ura-Leu medium ([2]; final concentration 0.2 ppm): 99%
Degree of growth of budding yeast TM182-FoOS1 Gul-Ura-Leu medium ([2]; final concentration 0.2 ppm): 7%

COP(=S)(OC)Oc1c(Cl)cc(C)cc1Cl [Compound (5), Tolclofos-methyl]
Degree of growth of budding yeast (%) AH22-BcOS1 Glu-Leu medium ([1]; final concentration 20 ppm): 79%
Degree of growth of budding yeast (%) AH22 Glu medium (AH22; final concentration 20 ppm): 80%
Degree of growth of budding yeast TM182-FoOS1 Gal-Ura-Leu medium ([2]; final concentration 20 ppm): 80%
Degree of growth of budding yeast TM182-FoOS1 Gul-Ura-Leu medium ([2]; final concentration 20 ppm): 57%

O=[N+]([O-])c1c(Cl)c(Cl)c(Cl)c(Cl)c1Cl [Compound (4), Quintozene]
Degree of growth of budding yeast (%) AH22-BcOS1 Glu-Leu medium ([1]; final concentration 20 ppm): 45%
Degree of growth of budding yeast (%) AH22 Glu medium (AH22; final concentration 20 ppm): 96%
Degree of growth of budding yeast TM182-FoOS1 Gal-Ura-Leu medium ([2]; final concentration 20 ppm): 104%
Degree of growth of budding yeast TM182-FoOS1 Gul-Ura-Leu medium ([2]; final concentration 20 ppm): 20%

C=CC1(C)OC(=O)N(c2cc(Cl)cc(Cl)c2)C1=O (stereo not shown) [Compound (3), Vinclozolin]
Degree of growth of budding yeast (%) AH22-BcOS1 Glu-Leu medium ([1]; final concentration 0.6 ppm): 93%
Degree of growth of budding yeast (%) AH22 Glu medium (AH22; final concentration 6 ppm): 87%
Degree of growth of budding yeast TM182-FoOS1 Gal-Ura-Leu medium ([2]; final concentration 6 ppm): 99%
Degree of growth of budding yeast TM182-FoOS1 Gul-Ura-Leu medium ([2]; final concentration 6 ppm): 22%

CC12CC1(C)C(=O)N(c1cc(Cl)cc(Cl)c1)C2=O (stereo not shown) [Compound (1), Procymidone]
Degree of growth of budding yeast (%) AH22-BcOS1 Glu-Leu medium ([1]; final concentration 0.6 ppm): 90%
Degree of growth of budding yeast (%) AH22 Glu medium (AH22; final concentration 6 ppm): 88%
Degree of growth of budding yeast TM182-FoOS1 Gal-Ura-Leu medium ([2]; final concentration 6 ppm): 116%
Degree of growth of budding yeast TM182-FoOS1 Gul-Ura-Leu medium ([2]; final concentration 6 ppm): 26%

N#Cc1c[nH]cc1-c1cccc(Cl)c1Cl [Compound (7), Fenpiclonil]
Degree of growth of budding yeast (%) AH22-BcOS1 Glu-Leu medium ([1]; final concentration 0.2 ppm): 94%
Degree of growth of budding yeast (%) AH22 Glu medium (AH22; final concentration 0.2 ppm): 91%
Degree of growth of budding yeast TM182-FoOS1 Gal-Ura-Leu medium ([2]; final concentration 0.2 ppm): 89%
Degree of growth of budding yeast TM182-FoOS1 Gul-Ura-Leu medium ([2]; final concentration 0.2 ppm): 21%
